From ChEMBL document CHEMBL1131845, “Naphthazarin derivatives (II): formation of glutathione conjugate, inhibition of DNA topoisomerase-I and cytotoxicity” (Bioorg Med Chem Lett, 1999)
≈ marks a conversion by molar mass, not a printed value.

What was measured:
L1210 = assay: Cytotoxicity against L1210 cells; type: functional; settings: Mus musculus, read-out: ED50 (the source's name)
[1] = Concentration formed during 5 min incubation of quinone (1 mM) with GSH (5 mM)

## CCC(O)c1cc(OC)c2c(c1OC)C(=O)C=CC2=O (stereo not given)
L1210
  EC50: 0.085 µg/mL (≈ 0.308 µM)
[1]
  Concentration: 0.295 mM

## CCC(O)C1=CC(=O)c2c(OC)ccc(OC)c2C1=O (stereo not given)
L1210
  EC50: 0.516 µg/mL (≈ 1.87 µM)
[1]
  Concentration: 0.084 mM

## CCCCCCCC(O)c1cc(OC)c2c(c1OC)C(=O)C=CC2=O (stereo not given)
L1210
  EC50: 0.274 µg/mL (≈ 0.791 µM)
[1]
  Concentration: 0.137 mM

## CCCCCC(O)c1cc(OC)c2c(c1OC)C(=O)C=CC2=O (stereo not given)
L1210
  EC50: 0.066 µg/mL (≈ 0.207 µM)
[1]
  Concentration: 0.28 mM

## CCCCCC(O)C1=CC(=O)c2c(OC)ccc(OC)c2C1=O (stereo not given)
L1210
  EC50: 0.378 µg/mL (≈ 1.19 µM)
[1]
  Concentration: 0.124 mM

## CCCCC(O)c1cc(OC)c2c(c1OC)C(=O)C=CC2=O (stereo not given)
L1210
  EC50: 0.057 µg/mL (≈ 0.187 µM)

## COc1cc(C(C)O)c(OC)c2c1C(=O)C=CC2=O (stereo not given)
L1210
  EC50: 0.132 µg/mL (≈ 0.503 µM)
[1]
  Concentration: 0.304 mM

## CCCC(O)c1cc(OC)c2c(c1OC)C(=O)C=CC2=O (stereo not given)
L1210
  EC50: 0.043 µg/mL (≈ 0.148 µM)

## CCCCCCC(O)C1=CC(=O)c2c(OC)ccc(OC)c2C1=O (stereo not given)
L1210
  EC50: 0.732 µg/mL (≈ 2.2 µM)
[1]
  Concentration: 0.072 mM

## CCCCCCCC(O)C1=CC(=O)c2c(OC)ccc(OC)c2C1=O (stereo not given)
L1210
  EC50: 1.04 µg/mL (≈ 3.01 µM)
[1]
  Concentration: 0.06 mM

## COc1ccc(OC)c2c1C(=O)C=C(CO)C2=O
L1210
  EC50: 0.524 µg/mL (≈ 2.11 µM)
[1]
  Concentration: 0.13 mM

## COc1cc(CO)c(OC)c2c1C(=O)C=CC2=O
L1210
  EC50: 0.062 µg/mL (≈ 0.25 µM)
[1]
  Concentration: 0.314 mM

## CCCC(O)C1=CC(=O)c2c(OC)ccc(OC)c2C1=O (stereo not given)
L1210
  EC50: 0.409 µg/mL (≈ 1.41 µM)
[1]
  Concentration: 0.116 mM

## CCCCCCC(O)c1cc(OC)c2c(c1OC)C(=O)C=CC2=O (stereo not given)
L1210
  EC50: 0.22 µg/mL (≈ 0.662 µM)
[1]
  Concentration: 0.182 mM

## CCCCC(O)C1=CC(=O)c2c(OC)ccc(OC)c2C1=O (stereo not given)
L1210
  EC50: 0.412 µg/mL (≈ 1.35 µM)
[1]
  Concentration: 0.131 mM

## COc1ccc(OC)c2c1C(=O)C=C(C(C)O)C2=O (stereo not given)
L1210
  EC50: 0.487 µg/mL (≈ 1.86 µM)
[1]
  Concentration: 0.125 mM
